# Source: publication PMC7287882, “Dual miRNases for Triple Incision of miRNA Target: Design Concept and Catalytic Performance” (Molecules, 2020)
# Assays:
# miR-155 = experiment: Gel-retardation assay, hybridization with miR-155; format: binding; settings: 37 °C, 45 min, mean of 3
# From the text: (§1) We carried out a comparative analysis of the hybridization properties of the developed DCs with the corresponding SCs, which were the products of the first stage of the DCs synthesis. As discussed above, each SC consisted of the corresponding oligonucleotide A, which was complementary to the 5′-region of the matching miRNA target, and the catalytic peptide [LRLRG]2, attached to the 5′-end of this oligonucleotide via a thiohexyl linker (linker 2). […] Indeed, the level of binding of DCs to their miRNA targets reached 96, 90, 75, 55% at equimolar concentration (1 μM), and 99, 96, 92 and 69% at 5-fold excess of DCs over miR-17, miR-18a, miR-21 and miR-155, respectively (Figure 2). […]
# (§2) The reaction mixture (4 µL) containing 50 mM Tris-HCl, pH 7.0, 200 mM KCl and 1 mM EDTA, 100 cpm (Cherenkov’s counting) of [^32P]-miRNA, 1 μM unlabeled miRNA, a conjugate at a concentration ranging from 0.1 to 10 μM was incubated at 37 °C for 45 min and quenched by adding of a loading buffer (20% ficoll, 0.025% bromophenol blue, 0.025% xylene cyanol). […] Formation of the complex miRNA/conjugate was analyzed by electrophoresis in 15% native PAAG at 4 °C. The gels were analyzed using Molecular Imager FX. The extent of binding of conjugate to miRNA was determined as a ratio of radioactivity measured in the complex to the total radioactivity applied onto the gel lane.
# miR-21 = experiment: Gel-retardation assay, hybridization with miR-21; format: binding; settings: 37 °C, 45 min, mean of 3
# From the text: as §1, §2
# miR-21_1 = experiment: Ribonuclease activity assay, cleavage of modified miR-21_1; format: biochemical; settings: miRNA 1 µM, DC 20 µM, 37 °C
# Method: The ribonuclease activity of DCs was studied under two different buffer conditions: buffer (1) contained 50 mM Tris-HCl, pH 7.0, 200 mM KCl, 1 mM EDTA, which imitates intracellular conditions (e.g., pH and potassium ions concentration) and was used in a number of studies previously; and buffer (2) contained 20 mM Tris-HCl, pH 7.8, 40 mM KCl, 8 mM MgCl2, 1 mM DTT, 0.02 mg/mL BSA, which is recommended for in vitro reactions with RNase H (Figure 3 and Figure 4).
# Despite the high binding affinity of all DCs to their matching miRNA targets, miR-21 was not cleaved by the corresponding Dual conjugate (Figure 3d). The most probable reason for this was the absence of the pyrimidine-A sites sensitive towards cleavage by this type of conjugates within the single-stranded “gap” formed upon binding to conjugate. In order to verify this hypothesis, we tested the cleavage of the modified miR-21 sequence (miRNA-21_1) containing 2 substitutions in the gap region (AGACU → AUACA) to generate C-A and U-A bonds. Such replacement, indeed, led to a noticeable cleavage of the miR-21_1 target with miR-21-targeting DC at the introduced U11-A12 and C13-A14 sites (Figure 3e) with the cleavage efficiency reaching 18% (Figure 3f, Table S2).
# The reaction mixture (10 µL) contained 800 cpm (Cherenkov’s counting) of [^32P]-miRNA, 1 μM unlabeled miRNA, one of the conjugates at a concentration 10 or 20 μM and one of the buffers: 50 mM Tris-HCl, pH 7.0, 200 mM KCl, 1 mM EDTA–buffer (1) or 20 mM Tris-HCl, pH 7.8, 40 mM KCl, 8 mM MgCl2, 1 mM DTT, 0.02 mg/mL BSA–buffer (2). The mixture was incubated at 37 °C for 0–72 h and quenched by precipitation of RNA with 2% LiClO4 in acetone (90 µL). RNA was collected by centrifugation and dissolved in loading buffer (8 M urea, 0.025% bromophenol blue, 0.025% xylene cyanol). RNA cleavage products were analyzed in 18% PAAG/8M urea using TBE (100 mM Tris-borate, pH 8.3, 2 mM EDTA) as running buffer. To identify cleavage sites, an imidazole and T1-ladders produced by partial RNA cleavage with 2 M imidazole buffer (pH 7.0) and with RNase T1 [68], respectively, were run in parallel. To obtain quantitative data, gels were dried and analyzed using Molecular Imager FX. The total extent of RNA cleavage and the extent of RNA cleavage at each individual site were determined by using Quantity One software v.4.1 (Bio-Rad, Hercules, CA, USA).
# [1] = 5-fold excess of DC over miRNA (1 µM), same buffer
# [2] = equimolar, DC 1 µM : miRNA 1 µM, 50 mM Tris-HCl pH 7.0, 200 mM KCl, 1 mM EDTA
Substance,level of binding of DC to miRNA target (miR-155; [1]) [%],level of binding of DC to miRNA target (miR-155; [2]) [%],level of binding of DC to miRNA target (miR-21; [1]) [%],level of binding of DC to miRNA target (miR-21; [2]) [%],"Total Cleavage (miR-21_1; buffer (1) 50 mM Tris-HCl pH 7.0, 200 mM KCl, 1 mM EDTA, 2 h)","Total Cleavage (miR-21_1; buffer (1) 50 mM Tris-HCl pH 7.0, 200 mM KCl, 1 mM EDTA, 24 h) [%]","Total Cleavage (miR-21_1; buffer (1) 50 mM Tris-HCl pH 7.0, 200 mM KCl, 1 mM EDTA, 48 h) [%]","Total Cleavage (miR-21_1; buffer (2) 20 mM Tris-HCl pH 7.8, 40 mM KCl, 8 mM MgCl2, 1 mM DTT, 0.02 mg/mL BSA, 6 h) [%]","Total Cleavage (miR-21_1; buffer (2) 20 mM Tris-HCl pH 7.8, 40 mM KCl, 8 mM MgCl2, 1 mM DTT, 0.02 mg/mL BSA, 24 h) [%]","Total Cleavage (miR-21_1; buffer (2) 20 mM Tris-HCl pH 7.8, 40 mM KCl, 8 mM MgCl2, 1 mM DTT, 0.02 mg/mL BSA, 48 h) [%]",rise of Kobs in buffer (2) compared to Kobs in buffer (1) (miR-21_1) [fold]
"ACCCCTAT–linker 1–[GRLRL]2–linker 2–TTAGCATTAA [miRNA-155-DC, Dual oligonucleotide-peptide conjugate targeted to miR-155: catalytic peptide [LRLRG]2 between two 2-aminoadenine-containing oligodeoxyribonucleotides]",69,55,–,–,–,–,–,–,–,–,–
"TCAACATC–linker 1–[GRLRL]2–linker 2–GATAAGCTA [miRNA-21-DC, Dual oligonucleotide-peptide conjugate targeted to miR-21: catalytic peptide [LRLRG]2 between two 2-aminoadenine-containing oligodeoxyribonucleotides]",–,–,92,75,"0,7%",10,18,14,48,63,3
